The test system of data set [1] is choroidal neovascularization (CNV) model. Nature of the data set: Laser-induced choroidal neovascularization (CNV) mouse model, CNV volume (Experiment 1). The data set is classed as in vivo, mouse (male C57BL/6J). The source says: In the CNV model, macrophages migrate by the initiation of an inflammation by laser irradiation. Since VEGF are produced, neovascular vessels are generated, and increased vascular permeability is observed as the result thereof, the CNV model is one of models that produce VEGF. […] The both eyes of a male C57BL/6J mice having a body weight of about 20 g (6-week old) were irradiated with laser (irradiated by 4 to 6 spots per one eye) to induce CNV experimentally. As mentioned below, an anti-VEGF antibody and/or fidarestat were administered as a drug. […] As the anti-VEGF antibody, an anti-mouse VEGF antibody purchased from R&D Systems was used. The number of examples was three or four per a group, and the following four groups were set. […] After completion of the laser irradiation, the mice were bred by general breeding for 7 days, and thereafter the eye balls were excised and the volume of CNV appeared in the choroid was measured. […] The volume of CNV was measured by importing an image in the vicinity of CNV by a confocal laser microscope (Zeiss LSM5 Pascal) and using image analysis software (NIH Image J). […]

Data set [2] has as its system choroidal neovascularization (CNV) model, increased vascular permeability. Nature of the data set: Laser-induced CNV mouse model, fluorescein-fluorescent fundus angiography, vascular permeability (Experiment 2). The data set is classed as in vivo. Conditions: fidarestat forced oral 16 mg/kg twice a day (32 mg/kg/day); 7 days after laser irradiation. The method, then:
An anti-VEGF antibody and/or fidarestat were administered to a mouse that had been treated to induce CNV in a similar manner to that in Experiment 1. […] The number of examples was three or four per a group, and the following five groups were set. […] The both eyes were photographed by an eye-fundus camera, and the obtained eye-ground picture was evaluated in a blinded manner according to the following criteria. • grade 0: nonleaky, no leakage from blood-vessel • grade 1: questionable leakage, weak leakage was observed • grade 2: leaky, leakage was observed • grade 3: pathologically significant leakage, clear leakage was observed on wide area The ratio of the number of the FA grade 3 lesions (%) in each eye was calculated, and the average value of the calculated rates in each group was obtained. […]

The subject of data set [3] is STZ-diabetic rat retina. The following applies: streptozotocin (STZ)-diabetic rat, cited from earlier work.
For data set [4] the following is noted: injected in the vitreous body of a human; cited from earlier work.

Consider `NC(=O)[C@@H]1C[C@]2(NC(=O)NC2=O)c2cc(F)ccc2O1` [fidarestat, (2S,4S)-6-fluoro-2′,5′-dioxospiro[chroman-4,4′-imidazolidine]-2-carboxamide], for which, in data set [1] (CNV mouse model, fidarestat), the “dose at which the maximum medicinal effect is shown” value is listed as 32 mg/kg/day. Further, the “effect of suppressing CNV (CNV volume) compared to the untreated group” value in data set [1] (fidarestat 32 mg/kg/day in powder feedstuff, from 2 days before to 7 days after laser irradiation) is “significant effect of suppressing CNV was observed (p<0.05)”. Besides, the “ratio of the number of the FA grade 3 lesions” value in data set [2] was “approximately the same rate as that in the 2 ng anti-VEGF antibody-administered group”. Besides, in data set [3] (retina), the “overexpression of VEGF” value is “suppresses”. Besides, in data set [3], the retinal oxidative stress result is “suppresses”.
With “ranibizumab: typical anti-VEGF agent, anti-VEGF antibody used as intravitreal injection”, the disappearing half-life in data set [4] is 220 h.

These data come from US20120301478A1, “Pharmaceutical for Preventing or Treating Disorders Accompanied by Ocular Angiogenesis and/or Elevated Ocular Vascular Permeability” (priority 2010, published 2012).
